These results are taken from patent US9371331B2, “Modulators of methyl modifying enzymes, compositions and uses thereof” (Constellation Pharmaceuticals, Inc., priority 2012, dated 2016).

SMILES strings stand for the structures. pEC50, pIC50: −log10 of the molar value. Read-outs that look alike come from different tables or passages of the source.

One test addresses Y641N EZH2 (Homo sapiens, UniProt Q15910, Y641N). As to the kind of experiment: Y641N EZH2 assay: as EZH2 assay, with reconstituted H3K27Me2 oligonucleosomes as substrate. It is filed as biochemical.
For the next test, the target named is EZH2 (rPRC2) (Homo sapiens, UniProt Q15910). As to the kind of experiment: EZH2 assay: rPRC2, biotinylated oligonucleosomes, 3H SAM methyl transfer (FlashPlate scintillation). Type of test: biochemical. Conditions: biotinylated oligonucleosome substrate.
Chain of EZH2 (rPRC2) (Q15910 whole entry): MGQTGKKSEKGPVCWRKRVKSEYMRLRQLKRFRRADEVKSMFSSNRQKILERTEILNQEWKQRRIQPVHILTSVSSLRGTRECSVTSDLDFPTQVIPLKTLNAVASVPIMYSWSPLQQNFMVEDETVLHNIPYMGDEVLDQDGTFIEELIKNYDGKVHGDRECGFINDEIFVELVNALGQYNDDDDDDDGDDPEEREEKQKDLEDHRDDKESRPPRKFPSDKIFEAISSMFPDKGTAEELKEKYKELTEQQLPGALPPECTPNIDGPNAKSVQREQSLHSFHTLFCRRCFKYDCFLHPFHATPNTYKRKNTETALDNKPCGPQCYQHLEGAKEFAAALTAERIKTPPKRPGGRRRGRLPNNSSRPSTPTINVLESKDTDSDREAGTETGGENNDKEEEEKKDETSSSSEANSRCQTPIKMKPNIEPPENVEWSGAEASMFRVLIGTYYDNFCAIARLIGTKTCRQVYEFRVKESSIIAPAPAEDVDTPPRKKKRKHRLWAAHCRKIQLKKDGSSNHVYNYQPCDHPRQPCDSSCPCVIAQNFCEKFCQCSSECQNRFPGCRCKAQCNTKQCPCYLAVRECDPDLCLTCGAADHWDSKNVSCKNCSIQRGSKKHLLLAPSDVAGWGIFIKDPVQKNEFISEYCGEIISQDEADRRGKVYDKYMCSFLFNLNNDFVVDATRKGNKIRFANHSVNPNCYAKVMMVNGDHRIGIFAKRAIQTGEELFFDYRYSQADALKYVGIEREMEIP
Chain of EZH2 (rPRC2) (O75530 whole entry partner): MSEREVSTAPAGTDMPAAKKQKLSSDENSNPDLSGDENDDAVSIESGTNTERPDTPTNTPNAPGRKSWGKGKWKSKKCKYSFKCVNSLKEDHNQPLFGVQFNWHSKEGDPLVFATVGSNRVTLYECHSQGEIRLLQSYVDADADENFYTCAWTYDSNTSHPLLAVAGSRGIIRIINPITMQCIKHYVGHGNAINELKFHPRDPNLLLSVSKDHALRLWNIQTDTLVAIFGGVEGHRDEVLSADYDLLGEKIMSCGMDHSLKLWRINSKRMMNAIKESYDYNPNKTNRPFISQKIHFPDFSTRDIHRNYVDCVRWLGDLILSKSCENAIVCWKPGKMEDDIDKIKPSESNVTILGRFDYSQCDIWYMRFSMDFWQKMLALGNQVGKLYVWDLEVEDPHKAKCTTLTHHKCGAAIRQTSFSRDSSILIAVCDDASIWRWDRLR
Chain of EZH2 (rPRC2) (Q15022 whole entry partner): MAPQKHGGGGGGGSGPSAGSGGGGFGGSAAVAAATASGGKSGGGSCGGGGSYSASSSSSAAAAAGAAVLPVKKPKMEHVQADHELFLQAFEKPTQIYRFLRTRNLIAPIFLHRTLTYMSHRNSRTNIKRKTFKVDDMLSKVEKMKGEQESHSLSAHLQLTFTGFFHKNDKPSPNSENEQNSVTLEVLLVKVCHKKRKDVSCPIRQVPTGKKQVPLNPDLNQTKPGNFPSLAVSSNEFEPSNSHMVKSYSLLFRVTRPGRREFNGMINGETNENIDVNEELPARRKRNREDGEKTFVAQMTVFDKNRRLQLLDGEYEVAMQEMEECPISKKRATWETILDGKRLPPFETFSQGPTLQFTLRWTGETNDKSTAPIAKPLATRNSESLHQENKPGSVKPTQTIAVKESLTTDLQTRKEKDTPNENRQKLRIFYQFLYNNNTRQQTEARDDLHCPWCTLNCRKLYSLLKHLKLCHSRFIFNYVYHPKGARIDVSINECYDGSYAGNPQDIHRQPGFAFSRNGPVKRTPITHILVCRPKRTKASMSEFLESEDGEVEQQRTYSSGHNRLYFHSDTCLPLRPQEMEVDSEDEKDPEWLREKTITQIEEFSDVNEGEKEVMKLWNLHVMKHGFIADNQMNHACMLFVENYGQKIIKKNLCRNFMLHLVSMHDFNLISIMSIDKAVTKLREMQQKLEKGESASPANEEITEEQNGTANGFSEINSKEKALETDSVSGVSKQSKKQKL
The subject of test [1] is H3K27me3 mark in HeLa cells. As to the kind of experiment: H3K27me3 MSD Hela Assay. Type of test: cell-based. Particulars: Homo sapiens, read-out: H3K27me3_MSD_HeLa_ (EC50). The procedure: Trypsinized HeLa cells were counted and diluted in 10% DMEM (Life Technologies, Cat. #10569) to 5000 cells/75 μL. Seventy-five […] of cells were place in each well of a 96-well flat-bottomed plate and incubated at 37° C. for 4 hours. Twenty-five μL of test compound (at various concentrations) was added to the cells and incubation continued at 37° C. for 96 hours. Media was then removed and the cells rinsed once with ice cold PBS. Forty μL of ice-cold MSD Buffer AT (10 mM HEPES, pH 7.9, 5 mM MgCl2, 0.25M sucrose, Benzonase (1:10000), 1% Triton X-100 supplemented with fresh 1× Protease Inhibitor cocktail and 1 mM 4-(2-Aminoethyl)benzenesulfonyl fluoride hydrochloride (AEBSF)) was added to each well and the plates placed on ice for 30 minutes. Ten μL of 5M NaCl was then added to each well and incubation on ice continued for another 15 minutes. The material in each well was suspended pipetting up and down and then transferred to a new 96 well plate. The emptied wells were rinsed with 150 uL ice-cold 20 mM Tris pH 7.5, 1 mM EDTA, 1 mM EGTA, supplemented with fresh 1× Protease Inhibitor cocktail and 1 mM AEBSF (“NO salt NO detergent buffer) and transferred to the respective wells in the new plate. Three hundred μL of NO Salt NO detergent buffer was then added to each well of lysates and the plates frozen at −80° C.
On the same day, an appropriate number of MSD standard bind 96-well plates were coated with 30 μL/well of total H3 capture antibody (Millipore. Cat #MAB3422) at 1 μg/mL concentration in PBS. The antibody solution was evenly distributed first by tapping gently on the sides of the plates and then by shaking the plates for a few minutes at 1000 rpm. Antibody coated plates were stored at 4° C. overnight.
The next day the lysates are thawed to RT. The antibody coated MSD plates are washed 3× with TBS-T (Tris-buffered saline (Fisher Scientific, Cat #BP2471-1)+0.2% Tween-20). One-hundred fifty μL of 5% Blocker A in TBS-T is added to each well. The wells are covered and shaken on a shaker at RT for one hour. The Blocker A step is repeated a second time. After removing the blocker, 25 μL of cell lysate is transferred into each antibody coated well. The plates are shaken for 2 hours at RT, the lysate removed and the plates again washed with Blocker A in TBS-T. Twenty-five μL of appropriate freshly prepared antibody mix (including both primary and secondary antibodies) is added to each well and the plates shaken for 1 hour at RT.
Both H3 antibodies were obtained from Cell Signalling (Cat #s 4499 and 9733). The goat anti-rabbit antibody was obtained from Meso-Scale Discovery (Cat #R32AB-1).
The antibody mix was then removed and the wells washed with Blocker A. One hundred-fifty μL of freshly prepared 1×MSD Read Buffer (Meso-Scale Discovery; Cat #R927C-2) was then added to each well and the plates read on a MSD Sector 2400 Plate Reader.
Data was analyzed using Assay Assistant (Constellation Pharmaceuticals In-house product) and Activity Base (IDBS Ltd, Surrey, UK) template. Data files were imported to Assay Assistant and assay conditions were specified. A unique Analysis ID was created and the data files exported to Activity Base. An analysis template was created on Activity Base to measure dose-dependent inhibition of H3K27me3 mark and cell viability respectively. Readout of DMSO wells were used to normalize the data. Resulting curves were fitted using Activity base software Model 205 (IDBS Ltd. Surrey, UK). The data was checked for quality, validated and integrated in excel format using SARview (IDBS Ltd, Surrey, UK).

Setting [2] is: Y641N EZH2 IC50, Y641N mutant EZH2, H3K27Me2 oligonucleosome substrate.
The mark [3] stands for this setting: EZH2 IC50, wild-type EZH2 (rPRC2).
Where [4] appears, read: Y641N mutant EZH2, H3K27Me2 oligonucleosome substrate, read-out: Y641N EZH2 IC50.
The mark [5] stands for this setting: wild-type EZH2 (rPRC2), read-out: EZH2 IC50.

Chain of Y641N EZH2 (Q15910 whole entry Y641N): as the sequence (Q15910 whole entry) above, with Y641N counted along it
Chain of Y641N EZH2 (O75530 whole entry partner): as the sequence (O75530 whole entry partner) above
Chain of Y641N EZH2 (Q15022 whole entry partner): as the sequence (Q15022 whole entry partner) above

As usually defined, the pIC50 is the IC50 on a negative log10 scale, so that one unit is a factor of ten. As a reminder, the pEC50 is −log10 of the EC50, conventionally taken in molar units. With `CCOCC(C)n1c(C)c(C(=O)NCc2c(OC)cc(C)[nH]c2=O)c2cccnc21` (racemic) [Compound 212, (±)-1-(1-ethoxypropan-2-yl)-N-((4-methoxy-6-methyl-2-oxo-1,2-dihydropyridin-3-yl)methyl)-2-methyl-1H-pyrrolo[2,3-b]pyridine-3-carboxamide], the pIC50 was 6.00 to 7.00 against Y641N EZH2 (setting [2]) and greater than 7.00 against EZH2 (rPRC2) (setting [3]). Also, the pEC50 in test [1] (HeLa, 96 h) was 5.70 to 6.40.

In the case of `COc1cncc(C(C)n2c(C)c(C(=O)NCc3c(C)cc(C)[nH]c3=O)c3cccnc32)c1` (racemic) [Compound 215, (±)-N-((4,6-dimethyl-2-oxo-1,2-dihydropyridin-3-yl)methyl)-1-(1-(5-methoxypyridin-3-yl)ethyl)-2-methyl-1H-pyrrolo[2,3-b]pyridine-3-carboxamide], the pIC50 on Y641N EZH2 (setting [2]) is 5.00 to 6.00; against EZH2 (rPRC2) (setting [3]), 6.00 to 7.00. Further, the pEC50 in test [1] (HeLa, 96 h) was 5.00 to 5.70.

For `Cc1cc(C)c(CNC(=O)c2c(C)n(C(C)c3ccn(C)c(=O)c3)c3ccccc23)c(=O)[nH]1` (racemic) [Compound 222, (±)-N-((4,6-dimethyl-2-oxo-1,2-dihydropyridin-3-yl)methyl)-2-methyl-1-(1-(1-methyl-2-oxo-1,2-dihydropyridin-4-yl)ethyl)-1H-indole-3-carboxamide], the pIC50 against Y641N EZH2 (setting [2]) and on EZH2 (rPRC2) (setting [3]) was 6.00 to 7.00 in each case. Besides, in test [1] (HeLa, 96 h), the negative-log EC50 (pEC50) is less than 5.00.

With `COCC(C)n1c(C)c(C(=O)NCc2c(OC)cc(C)[nH]c2=O)c2cc(F)ccc21` (racemic) [Compound 230, (±)-5-fluoro-N-((4-methoxy-6-methyl-2-oxo-1,2-dihydropyridin-3-yl)methyl)-1-(1-methoxypropan-2-yl)-2-methyl-1H-indole-3-carboxamide], the pIC50 is 6.00 to 7.00 on Y641N EZH2 (setting [2]) and greater than 7.00 on EZH2 (rPRC2) (setting [3]). For the same molecule, the pEC50 in test [1] (HeLa, 96 h) is 5.70 to 6.40.

As to `COCC(C)n1c(C)c(C(=O)NCc2c(OC)cc(C)[nH]c2=O)c2ccc(F)cc21` (racemic) [Compound 231, (±)-6-fluoro-N-((4-methoxy-6-methyl-2-oxo-1,2-dihydropyridin-3-yl)methyl)-1-(1-methoxypropan-2-yl)-2-methyl-1H-indole-3-carboxamide], the negative logarithm of the IC50 (pIC50) at Y641N EZH2 (setting [2]) is 6.00 to 7.00; on EZH2 (rPRC2) (setting [3]), greater than 7.00. In addition, the pEC50 in test [1] (HeLa, 96 h) is 5.70 to 6.40.

In the case of `Cc1cc(C)c(CNC(=O)c2c(C)n(C(C)Cn3cnc4ccccc43)c3ncccc23)c(=O)[nH]1` (racemic) [Compound 238, (±)-1-(1-(1H-benzo[d]imidazol-1-yl)propan-2-yl)-N-((4,6-dimethyl-2-oxo-1,2-dihydropyridin-3-yl)methyl)-2-methyl-1H-pyrrolo[2,3-b]pyridine-3-carboxamide], the pIC50 at Y641N EZH2 (setting [4]) is 5.00 to 6.00; on EZH2 (rPRC2) (setting [5]), 6.00 to 7.00. Further, the pEC50 in test [1] (HeLa cells, MSD, 96 hours) is 5.00 to 5.70.

Take `COc1cc(C)[nH]c(=O)c1CNC(=O)c1c(C)n(C(C)c2cccc(C#N)c2)c2ncccc12` (racemic) [Compound 239, (±)-1-(1-(3-cyanophenyl)ethyl)-N-((4-methoxy-6-methyl-2-oxo-1,2-dihydropyridin-3-yl)methyl)-2-methyl-1H-pyrrolo[2,3-b]pyridine-3-carboxamide]: the pIC50 on Y641N EZH2 (setting [2]) and against EZH2 (rPRC2) (setting [3]) was greater than 7.00 throughout. In addition, in test [1] (HeLa, 96 h), the pEC50 was 5.70 to 6.40.

For the molecule `COCC(C)n1c(C)c(C(=O)NCc2c(C)cc(C)[nH]c2=O)c2ccncc21` (racemic) [Compound 240, (±)-N-((4,6-dimethyl-2-oxo-1,2-dihydropyridin-3-yl)methyl)-1-(1-methoxypropan-2-yl)-2-methyl-1H-pyrrolo[2,3-c]pyridine-3-carboxamide], the pIC50 at Y641N EZH2 (setting [2]) was 6.00 to 7.00; against EZH2 (rPRC2) (setting [3]), greater than 7.00. In test [1] (HeLa, 96 h), the pEC50 was 5.00 to 5.70.

Take `COc1cc(C)[nH]c(=O)c1CNC(=O)c1c(C)n(C(C)c2cccc(C(N)=O)c2)c2ncccc12` (racemic) [Compound 242, (±)-1-(1-(3-carbamoylphenyl)ethyl)-N-((4-methoxy-6-methyl-2-oxo-1,2-dihydropyridin-3-yl)methyl)-2-methyl-1H-pyrrolo[2,3-b]pyridine-3-carboxamide]: the pIC50 at Y641N EZH2 (setting [4]) is 6.00 to 7.00; on EZH2 (rPRC2) (setting [5]), greater than 7.00. In addition, the pEC50 in test [1] (HeLa cells, MSD, 96 hours) is 5.00 to 5.70.

In the case of `COc1cc(C)[nH]c(=O)c1CNC(=O)c1c(C)n(C(C)c2ccccc2)c2cnccc12` (racemic) [Compound 243, (±)-N-((4-methoxy-6-methyl-2-oxo-1,2-dihydropyridin-3-yl)methyl)-2-methyl-1-(1-phenylethyl)-1H-pyrrolo[2,3-c]pyridine-3-carboxamide], the pIC50 on Y641N EZH2 (setting [2]) was 6.00 to 7.00; against EZH2 (rPRC2) (setting [3]), greater than 7.00. Also, the pEC50 in test [1] (HeLa, 96 h) was 5.00 to 5.70.

As for `Cc1cc(C)c(CNC(=O)c2c(C)n(C(C)CS(C)(=O)=O)c3ncccc23)c(=O)[nH]1` (racemic) [Compound 250, (±)-N-((4,6-dimethyl-2-oxo-1,2-dihydropyridin-3-yl)methyl)-2-methyl-1-(1-(methylsulfonyl)propan-2-yl)-1H-pyrrolo[2,3-b]pyridine-3-carboxamide], the pIC50 on Y641N EZH2 (setting [4]) was 6.00 to 7.00; on EZH2 (rPRC2) (setting [5]) it was greater than 7.00. For the same molecule, the pEC50 in test [1] (HeLa cells, MSD, 96 hours) was 5.00 to 5.70.

For the molecule `COCC(C)n1c(C)c(C(=O)NCc2c(C)cc(C)[nH]c2=O)c2scnc21` (racemic) [Compound 254, (±)-N-((4,6-dimethyl-2-oxo-1,2-dihydropyridin-3-yl)methyl)-4-(1-methoxypropan-2-yl)-5-methyl-4H-pyrrolo[2,3-d]thiazole-6-carboxamide], the pIC50 at Y641N EZH2 (setting [4]) and on EZH2 (rPRC2) (setting [5]) was 6.00 to 7.00 throughout. Besides, in test [1] (HeLa cells, MSD, 96 hours), the pEC50 is 5.00 to 5.70.

For `COc1cc(C)[nH]c(=O)c1CNC(=O)c1c(C)n(C(C)C2(C)COC2)c2ccccc12` (racemic) [Compound 291], the pIC50 on Y641N EZH2 (setting [2]) is 6.00 to 7.00; on EZH2 (rPRC2) (setting [3]), greater than 7.00. Further, the negative-log EC50 (pEC50) in test [1] (HeLa, 96 h) is 5.70 to 6.40.

Consider `Cc1cc(C)c(CNC(=O)c2c(C)n(C(C)c3ccccc3)c3ncccc23)c(=O)[nH]1` (single isomer, unassigned) [Compound 116, N-((4,6-dimethyl-2-oxo-1,2-dihydropyridin-3-yl)methyl)-2-methyl-1-(1-phenylethyl)-1H-pyrrolo[2,3-b]pyridine-3-carboxamide], for which the pIC50 on Y641N EZH2 (setting [2]) is 6.00 to 7.00; on EZH2 (rPRC2) (setting [3]), greater than 7.00. In addition, the pEC50 in test [1] (HeLa, 96 h) was 5.70 to 6.40.

Turning to `Cc1cc(C)c(CNC(=O)c2c(C)n(C(C)c3cccc(C#N)c3)c3ccccc23)c(=O)[nH]1` (single isomer, unassigned) [Compound 227, (R or S)-1-(1-(3-cyanophenyl)ethyl)-N-((4,6-dimethyl-2-oxo-1,2-dihydropyridin-3-yl)methyl)-2-methyl-1H-indole-3-carboxamide], the pIC50 against Y641N EZH2 (setting [2]) and against EZH2 (rPRC2) (setting [3]) was greater than 7.00 in each case. The pEC50 in test [1] (HeLa, 96 h) was 5.70 to 6.40.

As for `COCC(C)n1c(C)c(C(=O)NCc2c(OC)cc(C)[nH]c2=O)c2cccnc21` (single isomer, unassigned) [Compound 256, (R or S)-N-((4-methoxy-6-methyl-2-oxo-1,2-dihydropyridin-3-yl)methyl)-1-(1-methoxypropan-2-yl)-2-methyl-1H-pyrrolo[2,3-b]pyridine-3-carboxamide], the pIC50 is 6.00 to 7.00 at Y641N EZH2 (setting [2]) and greater than 7.00 against EZH2 (rPRC2) (setting [3]). For the same molecule, in test [1] (HeLa, 96 h), the pEC50 is 5.70 to 6.40.
